Laboratory results published in ChEMBL document CHEMBL3124888, “Inhibiting the HIV integration process: past, present, and the future” (J Med Chem, 2014).
Converted amounts (≈) assume the structure as drawn.

Key:
[1] = test system: Human immunodeficiency virus 1; assay: Antiviral activity against HIV-1 3B infected in human C8166 cells assessed as inhibition of viral replication by MTT assay; format: functional, organism-based; settings: Human immunodeficiency virus 1, 3B
[2] = biological target: Human immunodeficiency virus type 1 integrase (Human immunodeficiency virus 1, UniProt Q7ZJM1); assay: Inhibition of HIV-1 integrase binding to viral DNA by SPR-based competitive assay
[3] = Selectivity index, ratio of CC50 for human MT4 cells to EC50 for HIV-1 infected in human MT4 cells; format: toxicity, cell-based; settings: read-out: Ratio CC50/EC50
[4] = test system: Human immunodeficiency virus 1; assay: Antiviral activity against HIV-1 infected in human MT4 cells assessed as reduction of virus-induced cytopathic effect by MTT assay; format: functional, organism-based; settings: Human immunodeficiency virus 1, MT4
[5] = Inhibition of HIV-1 recombinant His6-tagged integrase/human LEDGF-75 interaction expressed in Escherichia coli BL21(DE3) by SDS PAGE analysis
[6] = test system: Human immunodeficiency virus 1; assay: Antiviral activity against HIV-1 by cell-based assay; format: functional, organism-based
[7] = test system: Human immunodeficiency virus 1; assay: Antiviral activity against HIV-1 harboring integrase E138K/Q148K double mutant relative to wild type HIV1; format: functional
[8] = test system: Human immunodeficiency virus 1; assay: Antiviral activity against HIV-1 harboring integrase T97A/Y143C double mutant relative to wild type HIV1; format: functional
[9] = test system: Human immunodeficiency virus 1; assay: Antiviral activity against HIV-1 harboring integrase T97A/Y143R double mutant relative to wild type HIV1; format: functional
[10] = test system: Human immunodeficiency virus 1; assay: Antiviral activity against HIV-1 harboring integrase E92Q mutant relative to wild type HIV1; format: functional
[11] = test system: Human immunodeficiency virus 1; assay: Antiviral activity against HIV-1 harboring integrase G140S mutant relative to wild type HIV1; format: functional
[12] = test system: Human immunodeficiency virus 1; assay: Antiviral activity against HIV-1 harboring integrase N155H mutant relative to wild type HIV1; format: functional
[13] = test system: Human immunodeficiency virus 1; assay: Antiviral activity against HIV-1 harboring integrase G118R mutant relative to wild type HIV1; format: functional
[14] = test system: Human immunodeficiency virus 1; assay: Antiviral activity against HIV-1 harboring integrase Q148K mutant relative to wild type HIV1; format: functional
[15] = test system: Human immunodeficiency virus 1; assay: Antiviral activity against HIV-1 harboring integrase R263K mutant relative to wild type HIV1; format: functional
[16] = test system: Human immunodeficiency virus 1; assay: Antiviral activity against HIV-1 harboring integrase G140S/Q148K double mutant relative to wild type HIV1; format: functional
[17] = test system: Human immunodeficiency virus 1; assay: Antiviral activity against HIV-1 harboring integrase T97A mutant relative to wild type HIV1; format: functional
[18] = test system: Human immunodeficiency virus 1; assay: Antiviral activity against HIV-1 harboring integrase Q148H mutant relative to wild type HIV1; format: functional
[19] = test system: Human immunodeficiency virus 1; assay: Antiviral activity against HIV-1 harboring integrase E138K/Q148H double mutant relative to wild type HIV1; format: functional
[20] = test system: Human immunodeficiency virus 1; assay: Antiviral activity against HIV-1 harboring integrase Y143R mutant relative to wild type HIV1; format: functional
[21] = test system: Human immunodeficiency virus 1; assay: Antiviral activity against HIV-1 harboring integrase E138K mutant relative to wild type HIV1; format: functional
[22] = test system: Human immunodeficiency virus 1; assay: Antiviral activity against HIV-1 harboring integrase T66R mutant relative to wild type HIV1; format: functional
[23] = test system: Human immunodeficiency virus 1; assay: Antiviral activity against HIV-1 harboring integrase E92Q/N155H double mutant relative to wild type HIV1; format: functional
[24] = test system: Human immunodeficiency virus 1; assay: Antiviral activity against HIV-1 harboring integrase G140S/Q148H double mutant relative to wild type HIV1; format: functional
[25] = test system: Human immunodeficiency virus 1; assay: Antiviral activity against HIV-1 harboring integrase Y143C mutant relative to wild type HIV1; format: functional
[26] = test system: Human immunodeficiency virus 1; assay: Antiviral activity against HIV-1 harboring integrase Q148R mutant relative to wild type HIV1; format: functional
[27] = Inhibition of HIV1 integrase/LEDGF-75 (unknown origin) interaction
[28] = test system: Human immunodeficiency virus

SMILES: O=C(CN1CCCC1)Nc1ccc(Cc2ccc(NC(=O)CN3CCCC3)cc2)cc1
- EC50 [1]: 17.1 µg/mL (≈ 40.5 µM)
- IC50 [2]: 7290 nM

SMILES: Cc1ccc(-c2c(C(OC(C)(C)C)C(=O)O)cnc3sc(C)cc23)cc1 (centres undefined)
- selectivity ratio [3]: 1390
- EC50 [4]: 69 nM

SMILES: CCCC(C(=O)O)c1c(C)nc2ccc(Cl)cc2c1-c1ccccc1 (centres undefined)
- IC50 [5]: 1370 nM
- EC50 [6]: 2350 nM

SMILES: CCOc1cc(/C=C2\SC(=O)N(CC(=O)c3ccccc3)C2=O)c(Br)cc1OCc1ccc(C(=O)O)cc1
- EC50 [6]: 23.8 µg/mL

SMILES: C[C@@H]1CCO[C@H]2Cn3cc(C(=O)NCc4ccc(F)cc4F)c(=O)c(O)c3C(=O)N12 [DOLUTEGRAVIR]
- fold change (FC) [7]: >100
- fold change (FC) [8]: <2
- fold change (FC) [9]: <2
- fold change (FC) [10]: 2
- fold change (FC) [11]: <2
- fold change (FC) [12]: <2
- fold change (FC) [13]: 2
- fold change (FC) [14]: <2
- fold change (FC) [15]: 10
- fold change (FC) [16]: <2
- fold change (FC) [17]: <2
- fold change (FC) [18]: <2
- fold change (FC) [19]: 2
- fold change (FC) [20]: <2
- fold change (FC) [21]: 2
- fold change (FC) [22]: <2
- fold change (FC) [23]: 2
- fold change (FC) [24]: <2
- fold change (FC) [25]: <2
- fold change (FC) [26]: <2

SMILES: CC(C)c1c(C(=O)Nc2ccccc2)c(-c2ccccc2)c(-c2ccc(F)cc2)n1CC[C@@H](O)C[C@@H](O)CC(=O)O [ATORVASTATIN]
- IC50 [27]: 8900 nM

SMILES: CCN1C[C@H](C)n2c(c(O)c3c(=O)n(Cc4ccc(F)c(Cl)c4)nc(C(=O)NC)c32)C1=O
- fold change (FC) [10]: <2
- fold change (FC) [11]: 2
- fold change (FC) [12]: 2
- fold change (FC) [13]: 2
- fold change (FC) [14]: <2
- T1/2 [28]: 32 h
- fold change (FC) [15]: <2
- fold change (FC) [16]: 2
- fold change (FC) [18]: 2
- fold change (FC) [20]: 2
- fold change (FC) [21]: 2
- fold change (FC) [22]: <2
- fold change (FC) [23]: 2
- fold change (FC) [24]: 10
- fold change (FC) [25]: 2
- fold change (FC) [26]: 2
